Laboratory results taken from patent publication US10620222B2, “Electrified compositions for determining the risk of developing adolescent idiopathic scoliosis through the use of GI protein receptor” (CHU Sainte-Justine, priority 2008, dated 2020).
“And” between values parts separate entries of the source, which are not always exact repeats. Identical values can stand only once.

Columns and labels:
[1] = system: receptors coupled to Gi proteins expressed on osteoblasts; test: Cellular Dielectric Spectroscopy (CDS, CELLKEY) response to Gi-coupled receptor ligands in osteoblasts from control and AIS subjects; type: cell-based, human; design: % of control / % of control signal, Group 1, min diff. / % of control signal, Group 2, min diff. / % of control signal, Group 3, min diff.: concentration or dose not given beside the values; dZiec value / Absolute dZiec, control value of max diff. (maximal control value): unit not given here; conditions: for CDS response, dependence on concentration: osteoblasts from both control and IS patients; for CDS response, dependence on concentration / magnitude of CDS response in IS osteoblasts vs control: FIGS. 4A-4C; for dZiec value / Absolute dZiec, control value of max diff. (maximal control value) / Absolute dZiec, control value of min diff. (minimal control value) / Absolute dZiec, Group 1, max diff. (group value) / Absolute dZiec, Group 1, min diff. (group value) / Absolute dZiec, Group 2, max diff. (group value) / Absolute dZiec, Group 2, min diff. (group value) / Absolute dZiec, Group 3, max diff. (group value) / Absolute dZiec, Group 3, min diff. (group value): 300 μM ligand; for dZiec value: n1, n2 of Exper. 1-3; for Absolute dZiec, control value of max diff. (maximal control value) / Absolute dZiec, control value of min diff. (minimal control value): osteoblasts of control subjects; for Absolute dZiec, control value of max diff. (maximal control value) / Absolute dZiec, control value of min diff. (minimal control value) / Absolute dZiec, Group 1, max diff. (group value) / Absolute dZiec, Group 1, min diff. (group value) / Absolute dZiec, Group 2, max diff. (group value) / Absolute dZiec, Group 2, min diff. (group value) / Absolute dZiec, Group 3, max diff. (group value) / Absolute dZiec, Group 3, min diff. (group value): from FIGS. 11A-11F; for Absolute dZiec, Group 1, max diff. (group value): AIS Group 1 value of max diff.; for Absolute dZiec, Group 1, min diff. (group value): AIS Group 1 value of min diff.; for Absolute dZiec, Group 2, max diff. (group value): AIS Group 2 value of max diff.; for Absolute dZiec, Group 2, min diff. (group value): AIS Group 2 value of min diff.; for Absolute dZiec, Group 3, max diff. (group value): AIS Group 3 value of max diff.; for Absolute dZiec, Group 3, min diff. (group value): AIS Group 3 value of min diff.
[2] = system: Gi protein-mediated pathway in MG63 osteoblast cell line; type: cell-based; conditions: 100 ng/mL PTX 16 h, stimulation with 10 μM ligand, 37° C., 5 min
Procedure: The ability of CDS to detect the relative part of the Gi protein-mediated pathway in melatonin signaling was determined by blocking this pathway with pertussis toxin (PTX). This toxin ADP-ribosylates the a subunit of the heterotrimeric Gi protein and thereby prevents its activity. The MG63 osteoblast cell line was serum-starved for 16 h in the absence or presence of 100 ng/mL of PTX to inhibit the αi subunit of Gi protein. […] Cellular responses were measured with CELLKEY™ label-free cellular analysis system as described in the Material and Methods section.

[3] = system: melatonin signaling in osteoblasts; test: cAMP assay in forskolin pre-treated osteoblasts; type: cell-based, human; conditions: osteoblasts from IS patients; increasing concentration of melatonin; FIG. 2
Procedure: Osteoblasts from patients with IS and control subjects were seeded in quadruplicate on 24-well plates (1×10^5 cells per well) and tested as previously described (Moreau A, Wang D S, Forget S et al. Melatonin Signaling Dysfunction in Adolescent Idiopathic Scoliosis. Spine 2004; 29:1772-81). All assays were performed in duplicate.
Cells were then challenged with increasing concentration of melatonin and the functional status of melatonin signaling was estimated by the ability of melatonin to reduce cAMP levels. Data were normalized with cAMP production induced by forskolin in the absence of melatonin. […] Furthermore, the extent of this production was different between the three IS patients.

[4] = system: melatonin signaling in PBMCs; test: CDS response to iodomelatonin in PBMCs from control and IS subjects; type: cell-based, human
Excerpt: Blood samples were obtained from patients and control groups and collected in blood collection tubes containing EDTA and then centrifuged on a Ficoll-Plaque (GE Healthcare, Mississauga, ON, Canada) solution to obtain PBMCs (containing principally lymphocytes). PBMC fractions were preserved frozen in FBS with 10% DMSO and kept in liquid nitrogen until thawed and assayed. PBMCs were harvested from stock tissue culture flask and washed three times with assay buffer. Cells were isolated from the heparinized peripheral by ficoll-Hypaque density gradient centrifugation, and cultured in RPMI 1640 medium supplemented with 10% FBS, 100 μg/mL streptomycin and 1% of phytohemagglutinin. Following 48 h of incubation at 37° C./CO2 cells were washed three times with assay buffer and seeded into the CELLKEY™ label-free cellular analysis system small 96-well plates. Typically, an average of 1×10^5 cells to 1.5×10^5 were added to each well and allowed to settle for 30 min at room temperature. […] After the cells settled, the cell plate was placed on the instrument and experiments were initiated in the manner described below after the acquisition of 5 min of baseline measurements. All experiments were conducted at 28° C.
The response induced by the various ligands to their receptors was measured by cellular dielectric spectroscopy (CDS) using the CELLKEY™ label-free cellular analysis technology. (MDS Sciex, San Francisco, Calif., USA). The CELLKEY™ label-free cellular analysis system integrates a proprietary impedance measurement system, custom 96-well microliter plate, onboard 96-well fluidics, and environment control and custom acquisition and analysis software in a full solution package (MDS Sciex) that is compatible with commercially available robotic platforms. Small voltage at 24 frequencies, from 1 KHz to 10 MHz, is applied to a monolayer of cells settled in a 96-well microplate containing electrodes at the bottom, and the resultant current is measured at an update rate of 2 s. […] Onboard fluid additions and exchanges are handled by 96-well head fluid delivery device with a range of 5-500 μL. In addition to the cell plate location, the CELLKEY™ label-free cellular analysis system includes two additional stations for 96- or 384-well compound plates. All aspects of assay set up, execution, and data acquisition and analysis are controlled by CELLKEY™ label-free cellular analysis software.
PBMCs were isolated from control subjects, IS subjects as described in Example 2 above.

[5] = osteoblasts of AIS#1020 (Group 3)
[6] = osteoblasts of AIS#1198 (Group 3 in Table II)
[7] = osteoblasts of AIS#1468 (Group 3)
[8] = osteoblasts of AIS#1474 (Group 1)
[9] = osteoblasts of AIS#1488 (Group 1)
[10] = osteoblasts of AIS#1513 (Group 3)
[11] = osteoblasts of AIS#1550 (Group 2)
[12] = PBMCs of control subjects, 300 μM, from FIG. 12A

SMILES	CDS response, dependence on concentration [1]	dZiec value [1, 5]	dZiec value [1, 6]	dZiec value [1, 7]	dZiec value [1, 8]	dZiec value [1, 9]	dZiec value [1, 10]	dZiec value [1, 11]	dZiec value ([1]; osteoblasts of control CTR#60)	dZiec value ([1]; osteoblasts of control CTR#61)	dZiec value ([1]; osteoblasts of control CTR#69)	Absolute dZiec, control value of max diff. (maximal control value) [1]	Absolute dZiec, control value of min diff. (minimal control value) [1]	Absolute dZiec, Group 1, max diff. (group value) ([1]; osteoblasts)	Absolute dZiec, Group 1, min diff. (group value) ([1]; osteoblasts)	Absolute dZiec, Group 2, max diff. (group value) ([1]; osteoblasts)	Absolute dZiec, Group 2, min diff. (group value) ([1]; osteoblasts)	Absolute dZiec, Group 3, max diff. (group value) ([1]; osteoblasts)	Absolute dZiec, Group 3, min diff. (group value) ([1]; osteoblasts)	magnitude of CDS response in IS osteoblasts vs control ([1]; osteoblasts)	also measured
COc1ccc2[nH]cc(CCNC(C)=O)c2c1 [Melatonin, melatonin]	concentration-dependent manner	29.38 and 31.88 and 40.33 and 39.33 and 34.34 and 36.12	23.94 and 31.44 and 31.91 and 25.91 and 27.41 and 29.19	44.92 and 46.42 and 54.79 and 49.34 and 51.12	16.53 and 13.03 and 15.18 and 17.34 and 16.12	9.79 and 11.29 and 10.91 and 12.34 and 12.12	38.90 and 39.40 and 50.81 and 51.81 and 44.34 and 46.12	28.28 and 30.78 and 29.43 and 32.43 and 29.34 and 31.12	55.81/— and 53.31/— and 63.72/— and 67.72/— and 59.25/— and 61.03/—	68.79/— and 66.29/— and 80.84/— and 84.84/— and 74.30/— and 76.08/—	76.12/— and 73.62/— and 89.58/— and 93.58/— and 82.34/— and 84.12/—	83	60	11	18	28	37	45	50	significantly lower	% of control ([1]; osteoblasts of AIS#1020 (Group 3) relative to CTR#60): 52.6% and 59.8% and 63.3% and 58.1% and 58% and 59.2%; % of control ([1]; osteoblasts of AIS#1198 (Group 3 in Table II) relative to CTR#69): 39.3% and 42.7% and 35.6% and 27.7% and 33.3% and 34.7%; % of control ([1]; osteoblasts of AIS#1468 (Group 3) relative to CTR#61): 65.3% and 70% and 67.8% and 64.6% and 66.4% and 67.2%; % of control ([1]; osteoblasts of AIS#1474 (Group 1) relative to CTR#60): 29.6% and 24.4% and 23.8% and 22.4% and 29.3% and 26.4%; % of control ([1]; osteoblasts of AIS#1488 (Group 1) relative to CTR#69): 12.9% and 15.3% and 12.2% and 11.7% and 15% and 14.4%; % of control ([1]; osteoblasts of AIS#1513 (Group 3) relative to CTR#61): 56.5% and 59.4% and 62.9% and 61.1% and 59.7% and 60.6%; % of control ([1]; osteoblasts of AIS#1549 (Group 1) relative to CTR#61): 25.1% and 25.3% and 22.8% and 24.1% and 23.3%; dZiec value ([1]; osteoblasts of AIS#1549 (Group 1)): 17.30 and 16.80 and 18.41 and 20.41 and 17.34 and 19.12; % of control ([1]; osteoblasts of AIS#1550 (Group 2) relative to CTR#60): 50.7% and 57.7% and 46.2% and 47.9% and 49.5% and 51%; % of control signal, Group 1, max diff. ([1]; osteoblasts, AIS Group 1 vs maximal control value): 13%; % of control signal, Group 1, min diff. ([1]; osteoblasts, AIS Group 1 vs minimal control value): 30%; % of control signal, Group 2, max diff. ([1]; osteoblasts, AIS Group 2 vs maximal control value): 34%; % of control signal, Group 2, min diff. ([1]; osteoblasts, AIS Group 2 vs minimal control value): 62%; % of control signal, Group 3, max diff. ([1]; osteoblasts, AIS Group 3 vs maximal control value): 54%; % of control signal, Group 3, min diff. ([1]; osteoblasts, AIS Group 3 vs minimal control value): 83%; inhibition extent of the CDS response by PTX treatment [2]: about 75%; cAMP production after forskolin stimulation, IS vs healthy control osteoblasts [3]: high cAMP production
COc1ccc2[nH]c(I)c(CCNC(C)=O)c2c1 [Iodomelatonin, 2-lodomelatonin]	concentration-dependent manner	69.57 and 66.57 and 85.25 and 97.25 and 83.71 and 74.11	61.05 and 65.29 and 70.29 and 60.97 and 57.37	91.38 and 88.38 and 101.69 and 113.69 and 102.83 and 93.23	33.02 and 32.02 and 38.33 and 32.33 and 39.97 and 36.37	25.43 and 27.43 and 30.31 and 27.31 and 19.17 and 19.57	83.92 and 80.92 and 94.08 and 106.08 and 95.30 and 85.70	55.99 and 48.99 and 60.90 and 62.90 and 62.74 and 59.14	142.55/— and 139.55/— and 149.20/— and 161.20/— and 152.18/— and 142.58/—	130.88/— and 127.88/— and 138.31/— and 150.31/— and 140.90/— and 131.30/—	150.99/— and 147.99/— and 161.10/— and 173.10/— and 162.34/— and 152.74/—	159	120	15	35	57	84	90	101	significantly lower	dZiec value ([1]; osteoblasts of AIS#1385 (Group 2)): 66.51 and 67.51 and 79.93 and 81.93 and 79.02 and 69.42; inhibition extent of the CDS response by PTX treatment [2]: ~90%; maximal magnitude of CDS response ([4]; PBMCs from IS patients, 300 μM): 110 ohms; minimum magnitude of CDS response ([4]; PBMCs from IS patients, 300 μM): 16 ohms; minimal magnitude of CDS response ([4]; PBMCs from healthy volunteers, 300 μM): 124 ohms; melatonin signaling response (CDS) ([4]; PBMCs from normal/healthy subjects, 300 μM): greater than 120 ohms; Absolute dZiec, control value of max diff. (maximal control value) [4, 12]: 225; Absolute dZiec, control value of min diff. (minimal control value) [4, 12]: 124; responsiveness of PBMCs from patients with IS compared to healthy volunteers ([4]; PBMCs, FIG. 12A, melatonin data not shown): less responsive; Absolute dZiec, Group 1, max diff. (group value) ([4]; PBMCs, Group 1 value of max diff., 300 μM, from FIG. 12A): 16; Absolute dZiec, Group 1, min diff. (group value) ([4]; PBMCs, Group 1 value of min diff., 300 μM, from FIG. 12A): 36; Absolute dZiec, Group 2, max diff. (group value) ([4]; PBMCs, Group 2 value of max diff., 300 μM, from FIG. 12A): 49; Absolute dZiec, Group 2, min diff. (group value) ([4]; PBMCs, Group 2 value of min diff., 300 μM, from FIG. 12A): 75; Absolute dZiec, Group 3, max diff. (group value) ([4]; PBMCs, Group 3 value of max diff., 300 μM, from FIG. 12A): 86; Absolute dZiec, Group 3, min diff. (group value) ([4]; PBMCs, Group 3 value of min diff., 300 μM, from FIG. 12A): 110; mean of CDS response ([4]; PBMCs, IS group 1, 300 μM): 27.86±4.18 ohms; mean of CDS response ([4]; PBMCs, IS group 2, 300 μM): 65.71±3.42 ohms; mean of CDS response ([4]; PBMCs, IS group 3, 300 μM): 97.94±1.36 ohms; mean of CDS response ([4]; PBMCs, control group, 300 μM): 155.17±3.91 ohms
